This note sets out measurements from patent publication US6777578B2, “Hydroxyphenstatin and the prodrugs thereof” (Arizona Board of Regents, priority 2000, dated 2004).

One data set concerns Neisseria gonorrhoeae. In words: Disk susceptibility testing, Neisseria gonorrhoeae. Format: cell-based. An excerpt:
(§1) The new substances were screened against the bacteria Stenotrophomonas maltophilia, Micrococcus luteus, Staphylococcus aureus, Escherichia coli, Enterobacter cloacae, Enterococcus faecalis, Streptococcus pneumoniae, Neisseria gonorrhoeae, and the fungi Candida albicans and Cryptococcus neoformans, according to established disk susceptibility testing protocols.

Another data set has as its system Candida albicans. In words: Disk susceptibility testing, Candida albicans. It is filed as cell-based.
Text: as §1

The next data set concerns Cryptococcus neoformans. In words: Disk susceptibility testing, Cryptococcus neoformans. It is filed as cell-based.
Text: as §1

Data set [1] deals with Stenotrophomonas maltophilia. In words: Disk susceptibility testing, Stenotrophomonas maltophilia. Format: cell-based.
Text: as §1

The test system of a further data set is Escherichia coli. In words: Disk susceptibility testing, Escherichia coli. Format: cell-based.
Text: as §1

The next data set deals with Staphylococcus aureus. In words: Disk susceptibility testing, Staphylococcus aureus. It is filed as cell-based.
Text: as §1

The test system of data set [2] is two fungal and eight bacterial strains. In words: Antibiotic screening against the whole panel. It is filed as cell-based. The conditions noted are these: for inhibition of growth of the two fungal and eight bacterial strains tested: at 100 μg/disk.
Text: as §1

The subject of a further data set is P388. In words: Cancer cell growth inhibition, murine P388 lymphocytic leukemia. Format: cell-based. Here is the method:
(§2) The following measures are used to express drug activity giving the drug dose, which reduces cell growth to a specified percentage of growth:
(§3) ED50 (P388) and GI50 (HTCL) are the drug doses needed to reduce the percent growth to 50%. There is no mathematical difference between ED50 and GI50, which are both calculated using the same formula. The only difference is historical usage.
(§4) Each drug is tested at five (5) doses: 100-10-1-0.1-0.01 μg/ml. Percent Growths are calculated for each dose. The two (or three) doses with growth values above, below, (or near to) 50% growth are used to calculate the ED50/GI50 using a linear regression formula. The log of the dose is used during the regression computation. If no dose yields a growth value under 50%, the results are expressed as: ED50>(highest dose). If no dose yields a growth value higher than 50%, then ED50<(lowest dose). Similar calculations are performed for the TGI at 0% growth, and at −50% growth for the LC50.

Another data set has as its system NCI-H460. In words: Human cancer cell growth inhibition, lung-NSC NCI-H460. Format: cell-based. The protocol: as §2, §3, §4
Data set [3] in a line: Solubility in distilled water. Format: physicochemical. The note with it: distilled water at 25° C.
For a further data set, the system named is BXPC-3. In words: Human cancer cell growth inhibition, pancreas BXPC-3. Format: cell-based. The conditions noted are these: Pancreas-a. Here is the method:
as §2, §3, §4

Another data set relates to DU-145. In words: Human cancer cell growth inhibition, prostate DU-145. It is filed as cell-based. The protocol: as §2, §3, §4
For another data set, the system named is SF-295. In words: Human cancer cell growth inhibition, CNS SF-295. It is filed as cell-based. The protocol:
as §2, §3, §4

The subject of a further data set is KM20L2. In words: Human cancer cell growth inhibition, colon KM20L2. It is filed as cell-based. The protocol:
as §2, §3, §4

For the next data set, the system named is NCI 60-cell screen. In words: NCI 60-cell screen. The conditions noted are these: read-out: mean-panel GI50. It is filed as cell-based.
In data set [4] the test system is tubulin. In words: Tubulin polymerization assay. It is filed as biochemical. The conditions noted are these: read-out: Inhibition of Tubulin Polymerization (μM IC50 ± SD). The protocol: (§5) The tubulin polymerization and colchicine binding assays were performed as described previously (See: […]), except that Beckman DU7400/7500 spectrophotometers equipped with “high performance” temperature controllers were used in the former assay. Unlike the manual control possible with the previously used Gilford spectrophotometers, the polymerization assays required use of programs provided by MDB analytical Associates, South Plainfield, N.J., since the Beckman instruments are microprocessor controlled. The Beckman instruments were unable to maintain 0° C., and the lower temperature in the assays fluctuated between 2 and 4° C. Temperature changes were, however, more rapid than in the Gilford instruments with the jump from the lower temperature to 30° C. taking about 20 sec. and the reverse jump about 100 sec.

Another data set has as its system Micrococcus luteus. In words: Disk susceptibility testing, Micrococcus luteus. Format: cell-based.
Text: as §1

The next data set concerns RPMI-7951. In words: Human cancer cell growth inhibition, melanoma RPMI-7951. It is filed as cell-based. Here is the method: as §2, §3, §4
Data set [5] deals with tubulin. In words: Colchicine binding assay. The conditions noted are these: [3H]colchicine binding to tubulin. The protocol: as §5

In brackets after ≈: the same amount, converted by molar mass. Like-named read-outs stand apart in the source and are kept apart here.

`COc1ccc(Br)c(C=O)c1O` [Compound 12, 2-Hydroxy-3-methoxy-6bromo-benzaldehyde]: the “Minimum inhibitory Concentration (μg/disk)” value in the data set with Neisseria gonorrhoeae is 12.5-25 μg/disk; in the data set on Candida albicans, 50-100 μg/disk; with Cryptococcus neoformans, 12.5-25 μg/disk.
Compound `COc1ccc(Br)c(O)c1O` [Compound 7a, 1-Bromo-2,3dihydroxy-4methoxy-benzene] came in with a melting point of 122.3 to 124.3 °C. Further, the “Minimum inhibitory Concentration (μg/disk)” value in data set [1] is given as 25-50 μg/disk. In the data set with Neisseria gonorrhoeae, the “Minimum inhibitory Concentration (μg/disk)” value is recorded as less than 6.25 μg/disk. In addition, in the data set with Escherichia coli, the “Minimum inhibitory Concentration (μg/disk)” value was 50-100 μg/disk. For the same compound, the “Minimum inhibitory Concentration (μg/disk)” value with Staphylococcus aureus is given as 25-50 μg/disk.
The compound `COCOc1c(OC)ccc(C(O)c2cc(OC)c(OC)c(OC)c2)c1OCOC` (stereo not shown) [Compound 15, 2′,3′-Bis(methoxymethyloxy)-3,4,4′,5tetramethoxydiphenylcarbinol] came in with a melting point of 79.9 to 81.8 °C. Further, the “inhibition of growth of the two fungal and eight bacterial strains tested” value in data set [2] is given as “none of these compounds inhibited growth”.
On to `COc1cc(C(O)c2ccc(OC)c(OC)c2OC)cc(OC)c1OC` (stereo not shown) [Compound 14, 2′,3,3′,4,4′,5Hexamethoxydiphenylcarbinol], for which the “inhibition of growth of the two fungal and eight bacterial strains tested” value in data set [2] was “none of these compounds inhibited growth”.
For the compound `COc1cccc(C=O)c1OC(C)=O` [Compound 10, 2-Acetoxy-3methoxy-benzaldehyde], the melting point was in the range of 75.4 to 76.2 °C. For the same compound, the “Minimum inhibitory Concentration (μg/disk)” value in data set [1] is 50-100 μg/disk. Moreover, the “Minimum inhibitory Concentration (μg/disk)” value with Cryptococcus neoformans is reported as 25-50 μg/disk.
`COc1cc(C(=O)c2ccc(OC)c(OP(=O)([O-])[O-])c2OP(=O)([O-])[O-])cc(OC)c1OC.[Na+].[Na+].[Na+].[Na+]` [Compound 6e, Sodium Hydroxyphenstatin Diphosphate]: the GI50 with P388 worked out at 0.0336 µg/mL; with NCI-H460, 0.35 µg/mL; with BXPC-3 it was 5.3 µg/mL; in the data set on DU-145, 0.3 µg/mL; with SF-295, 0.23 µg/mL; with KM20L2 it was 5.9 µg/mL. In addition, the GI50 with NCI 60-cell screen (NCI 60-cell screen, mean of panel) was determined as 167 nM. Besides, in data set [2], the “antifungal and/or antibacterial action” value is given as “did not”. In [3], the solubility came to 100 mg/mL. Also, in the data set with tubulin [4], the IC50 is greater than 40 µM.
Regarding `COc1cc(C(=O)c2ccc(OC)c(OP(=O)(OCc3ccccc3)OCc3ccccc3)c2OP(=O)(OCc2ccccc2)OCc2ccccc2)cc(OC)c1OC` [Compound 6d, 2′,3′-O-Di-(bisbenzylphosphoryl)-hydroxyphenstatin], the GI50 is 2.55 µg/mL (≈ 2.98 µM) in the data set with P388; greater than 10 µg/mL in the data set with NCI-H460; greater than 10 µg/mL in the data set on BXPC-3; greater than 10 µg/mL in the data set with DU-145; greater than 10 µg/mL in the data set with SF-295; greater than 10 µg/mL in the data set with RPMI-7951. Further, in the data set on Micrococcus luteus, the “Minimum inhibitory Concentration (μg/disk)” value is reported as 50-100 μg/disk.
Regarding `COc1cc(C(=O)c2ccc(OC)c(OC)c2OC)cc(OC)c1OC` [Compound 13, 2′,3,3′,4,4′,5-Hexamethoxybenzophenone], the melting point is 124.6 to 125.9 °C. Further, the “inhibition of growth of the two fungal and eight bacterial strains tested” value in data set [2] is “none of these compounds inhibited growth”.
On to `COc1ccc(/C=C\c2cc(OC)c(OC)c(OC)c2)cc1OP(=O)(O)O` [Compound 3c], for which the IC50 with tubulin [4] was greater than 40 µM.
The compound `COc1ccc(Br)c(O[Si](C)(C)C(C)(C)C)c1O[Si](C)(C)C(C)(C)C` [Compound 7b, 1-Bromo-2,3-bis(tert-butyldimethylsilyl-oxy)-4-methoxy-benzene] registered a melting point of 68.9 to 69.6 °C. Besides, the “inhibition of growth of the two fungal and eight bacterial strains tested” value in data set [2] is “none of these compounds inhibited growth”.
Turning to `COc1ccc(/C=C\c2cc(OC)c(OC)c(OC)c2)cc1O` [Compound 3b, combretastatin A-4], the IC50 with tubulin [4] stood at […].
`COc1ccc(C(=O)c2cc(OC)c(OC)c(OC)c2)c(O)c1O` [Compound 6a] came in with a melting point of 171.1 to 171.9 °C. The GI50 in the data set on P388 (Mus musculus, read-out: GI50) came to 0.315 µg/mL (≈ 0.942 µM). The GI50 in the data set with NCI-H460 (Homo sapiens, read-out: GI50) amounted to 0.21 µg/mL (≈ 0.628 µM). Besides, the “inhibition of growth of the two fungal and eight bacterial strains tested” value in data set [2] was “none of these compounds inhibited growth”. In the data set with BXPC-3 (Homo sapiens, read-out: GI50), the GI50 was 3.3 µg/mL (≈ 9.87 µM). For the same compound, the GI50 in the data set on DU-145 (Homo sapiens, read-out: GI50) stood at 0.048 µg/mL (≈ 0.144 µM). Besides, in the data set on tubulin [5], the “% Inhibition of Colchicine Binding ± SD” value is 77 ± 4%. Besides, in the data set on SF-295 (Homo sapiens, read-out: GI50), the GI50 amounted to 0.04 µg/mL (≈ 0.12 µM). Moreover, in the data set on KM20L2 (Homo sapiens, KM-20L2, read-out: GI50), the GI50 turned out to be 1.2 µg/mL (≈ 3.59 µM). The GI50 in the data set with NCI 60-cell screen (60 cell) was determined as 167 nM. Also, the GI50 with RPMI-7951 (Homo sapiens, read-out: GI50) came to 0.58 µg/mL (≈ 1.73 µM). In addition, the IC50 with tubulin [4] turned out to be 0.82 ± 0.2 µM.
As for `COc1cc(C(=O)N2CCOCC2)cc(OC)c1OC` [Compound 8a, N-(3,4,5Trimethoxybenzoyl)-morpholine], in data set [2], the “inhibition of growth of the two fungal and eight bacterial strains tested” value is reported as “none of these compounds inhibited growth”.
With `COc1ccc(/C=C\c2cc(OC)c(OC)c(OC)c2)c(O)c1O` [Compound 3a, combretastatin A-1, reference compound], the “% Inhibition of Colchicine Binding ± SD” value in the data set on tubulin [5] is listed as 99.6 ± 0.7%. Also, in the data set on tubulin [4], the IC50 is 1.1 ± 0.07 µM.
With `COc1cc(C(=O)c2ccc(OC)c(OP(=O)([O-])[O-])c2OP(=O)([O-])[O-])cc(OC)c1OC.[Ca+2].[Ca+2]` [Compound 6h, Calcium Hydroyphenstatin Diphosphate], the solubility in [3] was less than 1 mg/mL.
`COc1ccc(Br)c(C=O)c1OC(C)=O` [Compound 11, 2-Acetoxy-3methoxy-6bromo-benzaldehyde] displayed a melting point of 121.6 to 123.4 °C. Moreover, the “Minimum inhibitory Concentration (μg/disk)” value with Neisseria gonorrhoeae is 25-50 μg/disk. Also, in the data set with Candida albicans, the “Minimum inhibitory Concentration (μg/disk)” value is 12.5-25 μg/disk. The “Minimum inhibitory Concentration (μg/disk)” value in the data set with Escherichia coli is 50-100 μg/disk. For the same compound, the “Minimum inhibitory Concentration (μg/disk)” value in the data set with Cryptococcus neoformans is reported as 6.25-12.5 μg/disk.
In [3], `COc1cc(C(=O)c2ccc(OC)c(OP(=O)([O-])[O-])c2OP(=O)([O-])[O-])cc(OC)c1OC.[Li+].[Li+].[Li+].[Li+]` [Compound 6f, Lithium Hydroxyphenstatin Diphosphate] showed a solubility of 25 mg/mL.
On to `COCOc1c(OC)ccc(C(=O)c2cc(OC)c(OC)c(OC)c2)c1OCOC` [Compound 6c, 2′,3′-Bis(methoxymethyloxy)-3,4,4′,5-tetramethoxybenzophenone], for which the melting point lay within 70.2 to 71.7 °C. Moreover, the GI50 in the data set on P388 (Mus musculus, read-out: GI50) is greater than 10 µg/mL. Moreover, the GI50 with NCI-H460 (Homo sapiens, read-out: GI50) was greater than 10 µg/mL. Besides, the “inhibition of growth of the two fungal and eight bacterial strains tested” value in data set [2] was “none of these compounds inhibited growth”. In the data set with BXPC-3 (Homo sapiens, read-out: GI50), the GI50 is greater than 10 µg/mL. The GI50 in the data set on DU-145 (Homo sapiens, read-out: GI50) was greater than 10 µg/mL. Besides, the GI50 in the data set on SF-295 (Homo sapiens, read-out: GI50) is greater than 10 µg/mL. The GI50 in the data set with RPMI-7951 (Homo sapiens, read-out: GI50) is greater than 10 µg/mL.
